Results as given in publication PMC9025560, “A Comparison of Evans Blue and 4-(p-Iodophenyl)butyryl Albumin Binding Moieties on an Integrin αvβ6 Binding Peptide” (Pharmaceutics, 2022).
Read-outs that look alike come from different tables or passages of the source.

Experiments:
[1] = Stability in human serum at 37 °C; type: in vitro ADME; conditions: read-out: Stability in human serum, % intact
Method: For serum stability, mouse serum or human serum (0.5 mL, both purchased from Sigma-Aldrich) was combined with an aliquot of each of the peptides [^64Cu]1 and [^64Cu]2 (≤25 μL, 14.8–22.2 MBq) and incubated at 37 °C. At each time point (1, 4, and 24 h) an aliquot (50–200 μL) was taken, proteins precipitated with ethanol, and removed by pelleting at 1500 (RCF) for 4 min. The ethanol solution was diluted with water (1 mL) and analyzed by RP-HPLC as previously described.

human serum protein = assay: Human serum protein binding by ultrafiltration; type: in vitro ADME
Method: Serum protein binding of [^64Cu]1 and [^64Cu]2 was assessed following the previously reported method. Peptides [^64Cu]1 and [^64Cu]2 were evaluated by ultrafiltration using Centrifree Ultrafiltration devices (EMD) according to the manufacturer’s recommendations. Experiments were carried out in triplicate. The Centrifree Ultrafiltration devices were pretreated with PBS containing Tween 20 (5% v/v), followed by triplicate rinses with PBS. An aliquot of each peptide [^64Cu]1 or [^64Cu]2 in PBS (≤25 μL, 20–60 KBq) was thoroughly mixed with 0.5 mL of serum at 37 °C in a microfuge tube. The mixture was incubated at 37 °C for 5 min, and an aliquot (50 μL) was transferred to a tube for γ-counting. The remaining sample was transferred to a Centrifree Ultrafiltration device and centrifuged for 40 min at 1500 (RCF) at ambient temperature (20–24 °C). An aliquot (50 μL) of the filtrate was transferred to a tube for γ-counting. For each radiolabeled peptide, a blank was run using 0.5 mL PBS/Tween 20 (5% v/v) instead of serum (n = 3) to determine non-specific binding. Following γ-counting, the protein-bound radioactivity was calculated by subtracting the counts measured in the filtrate aliquot (i.e., not protein-bound) from the counts in the corresponding serum aliquot. The data are expressed as mean ± standard deviation of fraction of radioactivity bound to protein after subtraction of non-specific binding determined in the blank.

[2] = Blocking biodistribution with pre-administered metal free peptide; type: in vivo, mice; conditions: female, athymic nu/nu-nude, mouse, intravenous, total radioactivity, 4 h p.i., metal free peptide 10 min before, n = 1
Method: For blocking studies, the metal free peptides 1 or 2 (~220 nmol, 1.3 mg in 100 μL PBS), respectively, were injected i.v. (n = 1/peptide) as described above 10 min prior to the injection of matching radiolabeled [^64Cu]1 or [^64Cu]2 (3.7–5.55 MBq, 100 μL PBS). After a conscious 4 h uptake period, the animals were anesthetized, sacrificed, tissues rapidly collected, and analyzed as described above. Decay-corrected radioactivity concentrations are expressed as a percentage of injected dose per gram of tissue (% ID/g) (Figure S23).

BxPC-3 xenograft tumors = assay: Biodistribution in mice bearing BxPC-3 xenograft tumors; type: in vivo
Method: All animal procedures conformed to the Animal Welfare Act and were approved by the University of California, Davis Institutional Animal Care and Use Committee. Female athymic nu/nu-nude mice (6–8 weeks old) were purchased from Charles River Laboratories (Wilmington, MA, USA) and provided food and water on an ad libitum basis. BxPC-3 xenografts were implanted according to previous methods. Briefly, BxPC-3 cells were evaluated by flow cytometry to confirm integrin αvβ6 expression levels, injected subcutaneously into the left flank [5 million in 100 μL of a 1:1 mixture of serum-free RPMI and GFR Matrigel (Corning, New York, NY, USA)], and allowed to grow for approximately 3 weeks until tumors reached a diameter of 0.5–1 cm.
For biodistribution studies the [^64Cu]1–4 (3.7–5.55 MBq) in PBS (100 μL, pH 7.2) was injected intravenously (i.v.) via catheter into the tail vein. Following a conscious uptake period, the mice were anesthetized (5% isoflurane), euthanized, and dissected ([^64Cu]1 and [^64Cu]2, n = 3/radiolabeled peptide/time point; 4, 24, and 48 h p.i.; the 72 h time point was obtained from the imaging animals after the 72 h PET/CT scans; compounds [^64Cu]3 and [^64Cu]4, n = 2/radiolabeled compound at 4 h p.i.). Tissues were rapidly collected, weighed, and radioactivity measured with a γ-counter. Decay-corrected radioactivity concentrations are expressed as the percentage of injected dose per gram of tissue (% ID/g). Data are reported as mean ± standard deviation (SD) (Figure S20, S21 and S25).

Compound: CC(C)C[C@H](NC(=O)[C@H](CC(=O)O)NC(=O)CNC(=O)[C@H](CCCNC(=N)N)NC(=O)[C@H](CC(C)C)NC(=O)[C@H](CC(N)=O)NC(=O)[C@@H]1CCCN1C(=O)[C@@H](NC(=O)[C@H](C)NC(=O)[C@H](CC(N)=O)NC(=O)CCOCCOCCOCCOCCOCCOCCOCCOCCOCCOCCOCCOCCOCCOCCOCCOCCOCCOCCOCCOCCOCCOCCOCCOCCOCCOCCOCCOCCNC(=O)[C@H](CCCCNC(=O)[C@H](CC(=O)O)NC(=O)CCCNC(=O)CCCc1ccc(I)cc1)NC(=O)CN1CCN(CC(=O)O)CCN(CC(=O)O)CCN(CC(=O)O)CC1)C(C)C)C(=O)N[C@@H](CCC(N)=O)C(=O)N[C@H](C(=O)N[C@@H](CC(C)C)C(=O)N[C@@H](C)C(=O)N[C@@H](CCC(N)=O)C(=O)N[C@@H](CCCNC(=N)N)C(=O)N[C@H](C(=O)N[C@@H](C)C(=O)N[C@@H](CCCNC(=N)N)C(=O)N[C@H](C(=O)NCCOCCOCCOCCOCCOCCOCCOCCOCCOCCOCCOCCOCCOCCOCCOCCOCCOCCOCCOCCOCCOCCOCCOCCOCCOCCOCCOCCOCCC(N)=O)[C@@H](C)O)C(C)C)C(C)C [[^64Cu]2, [^64Cu]Cu DOTA-IP-αvβ6-BP, metal not drawn]
- remaining at 1 h ([1]; 1 h): 99%
- remaining at 4 h ([1]; 4 h): 93%
- remaining at 24 h ([1]; 24 h): 90%
- Binding to human serum protein (human serum protein; 37 °C, ultrafiltration): 63.3 ± 1.5%
- Serum albumin binding (human serum protein; abstract, serum species not stated): 42–44%
- tissue uptake at 4 h ([2]; BxPC-3 tumor, read-out: BxPC-3 Tumor uptake, blocked): 2.89 %ID/g
- tissue uptake at 4 h ([2]; blood, read-out: Blood uptake, blocked): 3.98 %ID/g
- tissue uptake at 4 h ([2]; bone, read-out: Bone uptake, blocked): 0.5 %ID/g
- tissue uptake at 4 h ([2]; brain, read-out: Brain uptake, blocked): 0.09 %ID/g
- tissue uptake at 4 h ([2]; gall bladder, read-out: Gall Bladder uptake, blocked): 1.64 %ID/g
- tissue uptake at 4 h ([2]; heart, read-out: Heart uptake, blocked): 1.31 %ID/g
- tissue uptake at 4 h ([2]; kidneys, read-out: Kidneys uptake, blocked): 16.8 %ID/g
- tissue uptake at 4 h ([2]; large intestines, read-out: Lg. Intestines uptake, blocked): 1.26 %ID/g
- tissue uptake at 4 h ([2]; liver, read-out: Liver uptake, blocked): 2.04 %ID/g
- tissue uptake at 4 h ([2]; lung, read-out: Lung uptake, blocked): 2.08 %ID/g
- tissue uptake at 4 h ([2]; muscle, read-out: Muscle uptake, blocked): 0.5 %ID/g
- tissue uptake at 4 h ([2]; pancreas, read-out: Pancreas uptake, blocked): 0.76 %ID/g
- tissue uptake at 4 h ([2]; skin, read-out: Skin uptake, blocked): 1.26 %ID/g
- tissue uptake at 4 h ([2]; small intestines, read-out: Sm. Intestines uptake, blocked): 1.18 %ID/g
- tissue uptake at 4 h ([2]; stomach, read-out: Stomach uptake, blocked): 1.2 %ID/g
- Tumor-Blood ratio (BxPC-3 xenograft tumors; 4 h p.i.): > 4/1
- Tumor-Kidney ratio (BxPC-3 xenograft tumors; 4 h p.i.): 0.23 ± 0.02
- Tumor-Lg Intestines ratio (BxPC-3 xenograft tumors; 4 h p.i.): 0.78 ± 0.10
- Tumor-Liver ratio (BxPC-3 xenograft tumors; 4 h p.i.): 3.2–4.9
- Tumor-Muscle ratio (BxPC-3 xenograft tumors; 4 h p.i.): > 8/1
- Tumor-Sm Intestines ratio (BxPC-3 xenograft tumors; 4 h p.i.): 0.80 ± 0.07
- Tumor-Stomach ratio (BxPC-3 xenograft tumors; 4 h p.i.): 0.43 ± 0.07
- BxPC-3 Tumor uptake (BxPC-3 xenograft tumors; 4 h p.i., i.v.): > 7.5 % ID/g
- Kidneys uptake (BxPC-3 xenograft tumors; 4 h p.i., i.v.): 33.6 ± 5.4 % ID/g
- Stomach uptake (BxPC-3 xenograft tumors; 4 h p.i., i.v.): 18.1 ± 2.9 % ID/g
- Tumor-Blood ratio (BxPC-3 xenograft tumors; 4 h p.i., listed as [64Cu]2): 6.15 ± 0.47
- Tumor-Liver ratio (BxPC-3 xenograft tumors; 4 h p.i., listed as [64Cu]2): 4.89 ± 0.63
- Tumor-Muscle ratio (BxPC-3 xenograft tumors; 4 h p.i., listed as [64Cu]2): 8.16 ± 2.41
- Tumor-Blood ratio (BxPC-3 xenograft tumors; 24 h p.i.): 21.86 ±5.94
- Tumor-Kidney ratio (BxPC-3 xenograft tumors; 24 h p.i.): 0.20 ± 0.06
- Tumor-Lg Intestines ratio (BxPC-3 xenograft tumors; 24 h p.i.): 0.81 ±0.24
- Tumor-Liver ratio (BxPC-3 xenograft tumors; 24 h p.i.): 2.72 ± 0.62
- Tumor-Muscle ratio (BxPC-3 xenograft tumors; 24 h p.i.): 5.87 ±2.04
- Tumor-Sm Intestines ratio (BxPC-3 xenograft tumors; 24 h p.i.): 0.97 ±0.27
- Tumor-Stomach ratio (BxPC-3 xenograft tumors; 24 h p.i.): 0.39 ±0.09
- Tumor-Blood ratio (BxPC-3 xenograft tumors; 48 h p.i.): 22.11 ± 14.41
- Tumor-Kidney ratio (BxPC-3 xenograft tumors; 48 h p.i.): 0.35 ± 0.14
- Tumor-Lg Intestines ratio (BxPC-3 xenograft tumors; 48 h p.i.): 1.10 ± 0.47
- Tumor-Liver ratio (BxPC-3 xenograft tumors; 48 h p.i.): 2.46 ± 0.97
- Tumor-Muscle ratio (BxPC-3 xenograft tumors; 48 h p.i.): 6.68 ± 2.42
- Tumor-Sm Intestines ratio (BxPC-3 xenograft tumors; 48 h p.i.): 1.81 ± 0.61
- Tumor-Stomach ratio (BxPC-3 xenograft tumors; 48 h p.i.): 0.67 ± 0.27
- Tumor-Blood ratio (BxPC-3 xenograft tumors; 72 h p.i.): 28.82 ± 2.64
- Tumor-Kidney ratio (BxPC-3 xenograft tumors; 72 h p.i.): 0.44 ± 0.14
- Tumor-Lg Intestines ratio (BxPC-3 xenograft tumors; 72 h p.i.): 1.63 ±0.32
- Tumor-Liver ratio (BxPC-3 xenograft tumors; 72 h p.i.): 3.77 ± 0.72
- Tumor-Muscle ratio (BxPC-3 xenograft tumors; 72 h p.i.): 6.70 ±1.74
- Tumor-Sm Intestines ratio (BxPC-3 xenograft tumors; 72 h p.i.): 4.01 ±1.10
- Tumor-Stomach ratio (BxPC-3 xenograft tumors; 72 h p.i.): 1.55 ±0.08
- Fold increase in tumor accumulation over non-ABM [64Cu]Cu DOTA-αvβ6-BP (BxPC-3 xenograft tumors; BxPC-3 tumor model): > 3 fold
